# In PMC7291858, “An Enhanced Variant Designed From DLP4 Cationic Peptide Against Staphylococcus aureus CVCC 546” (Frontiers in Microbiology, 2020):
# “And” between values parts separate entries of the source, which are not always exact repeats. Identical values can stand only once. Ends that are not written are not given here. Peptide text beside a SMILES is read from it.
# Assays:
# [1] = Drop-diffusion assay of antibacterial activity; type: cell-based
# [2] = test system: S. aureus CVCC 546; test: Mouse thigh infection model, CFU in thigh muscle; type: in vivo, mouse (female CD-1); settings: 10 mg/kg single i.p. dose 2 h post-infection, read 24 h post-infection, n = 6
# Protocol: (§1) Mouse experiments were carried out at Gene Engineering Laboratory, Feed Research Institute of Chinese Academy of Agricultural Sciences (CAAS) and complied with institutional animal care and use policies and procedures (AEC-CAAS-20090609). All animal studies were performed with female CD-1 mice, 6∼7 weeks old.
# (§2) S. aureus CVCC 546 in the exponential phase were resuspended in MHB and adjusted to 1 × 10^8 CFU/mL, a 0.1-mL inoculum was injected into the right thighs of mice. At 2 h post-infection, mice (n = 6) were administered intraperitoneally (i.p.) with peptides at 2.5, 5, or 10 mg/kg. Mice raised without any treatment, or treated with PBS, 10 mg/kg DLP4, or vancomycin were used as the blank and negative and positive controls, respectively. At 24 h post-infection, peripheral blood was collected and serum was separated for cytokine levels analysis by using enzyme-linked immunosorbent assay (ELISA) kit (R&D systems, United States). Mice were euthanized, the right thighs were aseptically removed and processed for colonies counting ([Ling et al., 2015]).
# [3] = test system: S. suis CVCC 3928; test: MIC, microtiter plate assay; type: cell-based, Streptococcus suis; settings: 16∼20 h, triplicate
# Protocol: (§3) The minimal inhibitory concentration (MIC) was evaluated by a microtiter plate assay ([Wiegand et al., 2008]). Serial 2-fold dilutions of test peptides were placed into a 96-well plate containing identical bacterial inoculum and incubated at 37°C for 16∼20 h. Vancomycin was used as antibiotic control. The MIC value was defined as the lowest peptide concentration where no visible growth occurred. All tests were made in triplicate.
# [4] = test system: mouse erythrocytes; test: Hemolytic activity; type: cell-based; settings: 128 μg/mL, 8% (v/v) mouse erythrocytes in PBS, 1 h, 37°C, absorbance 576 nm, n = 3
# Protocol: Hemolytic activity of peptides was evaluated with fresh mouse erythrocytes. Briefly, fresh mouse erythrocytes were collected, washed, and resuspended to a concentration of 8% (v/v) in PBS. Then, an aliquot of erythrocyte solution was added to 96-well plates containing an equal volume of peptide solution (1∼256 μg/mL) and was incubated for 1 h at 37°C. The erythrocyte suspension treated with 0.1% Triton X-100 and left untreated was employed as positive and negative controls, respectively. After centrifugation at 2000 rpm for 5 min, the supernatant was measured using a microplate reader at 576 nm. The percent hemolysis was calculated using the following formula: Percenthemolysis = [(A − A0)/(A100 − A0)] × 100%, where A, A100, and A0 represent the absorbance of the peptide sample and positive and negative controls, respectively.
# [5] = test system: Staphylococcus aureus CVCC 546; test: microbe, parasite or virus in culture; type: cell-based
# Protocol: as §3
# [6] = test system: mouse macrophage RAW 264.7; test: Cytotoxicity, MTT assay; type: cell-based; settings: 256 μg/mL, RAW 264.7, MTT, n = 4
# Protocol: The cytotoxicity of peptides toward mouse macrophage RAW 264.7 was evaluated by the MTT assay as described previously ([Wang X. et al., 2018]).
# [7] = test system: Salmonella pullorum CVCC 533; test: MIC, microtiter plate assay; type: cell-based; settings: 37°C, 16∼20 h, triplicate
# Protocol: as §3
# [8] = test system: Streptococcus pneumoniae CVCC 2350; test: MIC, microtiter plate assay; type: cell-based; settings: 16∼20 h, triplicate
# Protocol: as §3
# [9] = test system: Escherichia coli ATCC 25922; test: MIC, microtiter plate assay; type: cell-based; settings: 16∼20 h, triplicate
# Protocol: as §3
# [10] = test system: TNF-α; test: Mouse thigh infection model, serum cytokine ELISA; type: in vivo, mouse (female CD-1); settings: 10 mg/kg i.p., serum 24 h post-infection
# Protocol: as §1, §2
# [11] = test system: IL-10; test: Mouse thigh infection model, serum cytokine ELISA; type: in vivo, mouse (female CD-1); settings: 10 mg/kg i.p., serum 24 h post-infection
# Protocol: as §1, §2
# [12] = test system: IL-6; test: Mouse thigh infection model, serum cytokine ELISA; type: in vivo, mouse (female CD-1); settings: 10 mg/kg i.p., serum 24 h post-infection
# Protocol: as §1, §2
# [13] = test system: S. aureus CVCC 546; test: Post-antibiotic effect (PAE); type: cell-based, Staphylococcus aureus; settings: 2 × MIC, 2 h exposure, mean ± SD, n = 3
# Protocol: The PAE was determined by exposing S. aureus cells to antimicrobial agent at 1×, 2×, or 4 × MIC for 2 h. After drug removal by dilution, the bacterial culture was incubated at 37°C and 250 rpm. An aliquot of samples (50 μL) were taken for CFU counts at different time intervals until bacterial cultures became turbid. Bacteria treated with DLP4 or vancomycin and left without treatment were used as the positive and blank controls, respectively. The PAE was calculated using the following formula: PAE = T − C, where T is the time for the CFU counts to increase by 10-fold above the count observed immediately after drug removal, and C is the corresponding time for the untreated control ([Oh et al., 2019]).
# [14] = test system: S. epidermidis ATCC 12228; test: MIC, microtiter plate assay; type: cell-based, Staphylococcus epidermidis; settings: 16∼20 h, triplicate
# Protocol: as §3
# [15] = test system: S. aureus CVCC 546; test: Time-kill assay; type: cell-based, Staphylococcus aureus; settings: 2 × MIC, MHB, 10^5 CFU/mL, 37°C, n = 3
# Excerpt: Time-kill assay was used to assess the killing rates of S. aureus cells by AMPs in vitro, done by measuring the number of viable bacteria left at various times after exposure to the peptides. […] At different time intervals, a certain sample was taken, serially diluted, and plated on MHA for colonies counting. Cells treated with 2 × MIC DLP4 or vancomycin and left without treatment were used as the positive and blank controls, respectively ([Flamm et al., 2019]).
# [16] = test system: S. aureus CVCC 546; test: Membrane permeabilization, PI flow cytometry; type: cell-based, Staphylococcus aureus; settings: 2 × MIC, 0.5 h, 10^8 CFU/mL, n = 3
# Protocol: The effects of peptides on membrane permeabilization were measured by flow cytometry ([Zhu et al., 2018]). […] Cells untreated and treated with 2 × MIC DLP4 or vancomycin were used as blank and positive controls. The fluorescence of the dye was monitored at an excitation wavelength of 488 nm and an emission wavelength of 635 nm.
# [17] = test system: E. coli K88; test: MIC, microtiter plate assay; type: cell-based, Escherichia coli; settings: 16∼20 h, triplicate
# Protocol: as §3
# [18] = test system: S. enteritidis CVCC 3377; test: MIC, microtiter plate assay; type: cell-based, Salmonella enteritidis; settings: 37°C, 16∼20 h, triplicate
# Protocol: as §3
# [19] = test system: S. aureus CVCC 546 gDNA; test: Gel retardation assay of gDNA binding; set-up: species or system Staphylococcus aureus; settings: 10 min incubation, 1% agarose gel, ratios 0-5 (w/w)
# Protocol: A gel retardation assay ([Zhao et al., 2019]) was utilized to analyze the binding of peptides to genomic DNA (gDNA) extracted from S. aureus CVCC 546 with TIANamp Bacteria DNA Kit (TIANGEN Biotech Co., Ltd., Beijing). The peptides were incubated for 10 min with gDNA at different ratios of 0–5.0 (w/w) and then loaded on 1% agarose gel for electrophoresis analysis.
# [20] = test system: S. aureus ATCC 43300; type: cell-based, Staphylococcus aureus; settings: microtiter, serial 2-fold dilutions, 37°C, 16∼20 h, triplicate; – = no activity
# Outline: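 MIC values come from triplicate microtiter plate tests in which serial 2-fold peptide dilutions were incubated with bacteria at 37°C for 16∼20 h; no visible growth defined the endpoint.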
# [21] = test system: S. aureus CVCC 546; test: Potassium ion (K+) leakage; type: cell-based, Staphylococcus aureus; settings: 1 × MIC, treated for 150 min, 0.9% saline, 10^8 CFU/mL, ICP, n = 3
# Protocol: To further investigate the effects of peptides on membrane integrity, K^+ leakage determination was carried out as previously described ([Miao et al., 2016]). Briefly, S. aureus CVCC 546 cells were centrifuged, washed, and resuspended in 0.9% sterile saline. The cell suspension (10^8 CFU/mL) was treated with peptides at 1 × MIC. Cells untreated and treated with DLP4 or nisin were used as blank and positive controls. At time intervals of 30, 60, 90, 120, and 150 min, the suspensions were centrifuged at 12000 rpm for 5 min. The supernatants were then subjected to measurement by Agilent inductively coupled plasma optical emission (ICP-OES).
# [22] = test system: Gram-negative bacteria; test: MIC, summary over Gram-negative strains; type: cell-based; settings: E. coli and Salmonella strains of Table 2
# Protocol: as §3
molecule,measurement,setting,value
"ATCDLLSPFKVGHAACAAHCIARGKRSGWCDKRAVCNCRK (also: bicyclic or more (positions not given here)) [ID7, DLP4 derivative changed at a conservative site]",antibacterial activity,[1],no antibacterial activity
CN[C@H](CC(C)C)C(=O)N[C@H]1C(=O)N[C@@H](CC(N)=O)C(=O)N[C@H]2C(=O)N[C@H]3C(=O)N[C@H](C(=O)N[C@H](C(=O)O)c4cc(O)cc(O)c4-c4cc3ccc4O)[C@H](O)c3ccc(c(Cl)c3)Oc3cc2cc(c3O[C@@H]2O[C@H](CO)[C@@H](O)[C@H](O)[C@H]2O[C@H]2C[C@](C)(N)[C@H](O)[C@H](C)O2)Oc2ccc(cc2Cl)[C@H]1O [Vancomycin],reduction of S. aureus in infected thigh muscles,[2],0.77 log10 (CFU/g)
same,MIC,"[3]; Streptococcus suis, CVCC3928, 37°C",0.17 µM and 0.25 µg/mL
same,hemolysis,[4],0.54%
same,MIC,"[5]; Staphylococcus aureus, CVCC546, 20 h",0.67 µM and 1 µg/mL
same,cell viability,[6],85.8%
same,MIC,"[7]; Salmonella enterica, PULLORUM",86.2 µM and 128 µg/mL
same,MIC,"[8]; Streptococcus pneumoniae, CVCC2350, 37°C",0.34 µM and 0.5 µg/mL
same,MIC,"[9]; Escherichia coli, ATCC25922, 37°C",86.2 µM and 128 µg/mL
same,downregulation of serum level of TNF-α,[10],1052.98 pg/mL
same,downregulation of serum level of IL-10,[11],15.82 pg/mL
same,downregulation of serum level of IL-6,[12],497.48 pg/mL
same,PAE,[13],1.36 ± 0.20 h
same,MIC,"[14]; Staphylococcus epidermidis, ATCC12228, 37°C",0.67 µM and 1 µg/mL
same,decrease of CFU counts within 1 h,[15],0.22 log10 CFU/mL
same,percentage of PI-positive cells,[16],5.1%
same,MIC,"[17]; Escherichia coli, K88, 37°C",43.1 µM and 64 µg/mL
same,MIC,"[18]; Salmonella enterica, ENTERITIDIS",86.2 µM and 128 µg/mL
"CC[C@H](C)[C@@H]1NC(=O)[C@@H]2CSSC[C@@H](C(=O)N[C@@H](CCCNC(=N)N)C(=O)N[C@@H](CCCCN)C(=O)O)NC(=O)[C@H](CC(N)=O)NC(=O)[C@@H]3CSSC[C@H](NC(=O)[C@H](C)NC(=O)[C@H](C)NC(=O)[C@H](Cc4c[nH]cn4)NC(=O)CNC(=O)[C@H](C(C)C)NC(=O)[C@H](CCCCN)NC(=O)[C@H](Cc4ccccc4)NC(=O)[C@@H]4CCCN4C(=O)[C@H](CO)NC(=O)[C@H](CC(C)C)NC(=O)[C@H](CC(C)C)NC(=O)[C@H](CC(=O)O)NC(=O)[C@@H](NC(=O)[C@@H](NC(=O)[C@H](C)N)[C@@H](C)O)CSSC[C@H](NC(=O)[C@H](Cc4c[nH]c5ccccc45)NC(=O)CNC(=O)CNC(=O)[C@H](CCCNC(=N)N)NC(=O)[C@H](CCCCN)NC(=O)CNC(=O)[C@H](CCCNC(=N)N)NC(=O)[C@H](C)NC1=O)C(=O)N[C@@H](CC(=O)O)C(=O)N[C@@H](CCCCN)C(=O)N[C@@H](CCCNC(=N)N)C(=O)N[C@@H](C)C(=O)N[C@@H](C(C)C)C(=O)N3)C(=O)N[C@@H](C)C(=O)N[C@@H](C)C(=O)N[C@@H](Cc1c[nH]cn1)C(=O)N2 [DLP4] (HELM PEPTIDE1{A.T.C.D.L.L.S.P.F.K.V.G.H.A.A.C.A.A.H.C.I.A.R.G.K.R.G.G.W.C.D.K.R.A.V.C.N.C.R.K}$PEPTIDE1,PEPTIDE1,3:R3-30:R3|PEPTIDE1,PEPTIDE1,16:R3-36:R3|PEPTIDE1,PEPTIDE1,20:R3-38:R3$$$V2.0; N-terminus and C-terminus assumed)",reduction of S. aureus in infected thigh muscles,[2],1.7 log10 (CFU/g)
same,peptide/gDNA mass ratio at which gDNA was completely blocked,[19],2.5
same,peptide/gDNA mass ratio at which migration of gDNA began to be retarded,[19],0.5
same,MIC,[3]; 37°C,3.75 µM
same,hemolysis,[4],0.61%
same,MIC,"[5]; Table 1, – = no activity",16
same,MIC,"[5]; microtiter, 37°C, 16∼20 h, triplicate",3.75 µM
same,cell viability,[6],63.8%
same,A1 (MIC against S. aureus ATCC 43300),[20],16 µg/mL
same,MIC,[7],>29.98 µM
same,MIC,[8]; 37°C,7.50 µM
same,MIC,[9]; 37°C,>29.98 µM
same,downregulation of serum level of TNF-α,[10],1103.30 pg/mL
same,downregulation of serum level of IL-10,[11],29.06 pg/mL
same,downregulation of serum level of IL-6,[12],710.02 pg/mL
same,PAE,[13],8.20 ± 0.19 h
same,MIC,[14]; 37°C,14.99 µM
same,decrease of CFU counts within 1 h,[15],2.7 log10 CFU/mL
same,percentage of PI-positive cells,[16],41.8%
same,MIC,[17]; 37°C,>29.98 µM
same,level of released K+,[21],0.72 mg/L
same,activity against Gram-negative bacteria,[22],no activity
same,MIC,[18],>29.98 µM
